{"source": "patent US20240115654A1", "about": "“INTRAVENOUS ADMINISTRATION OF ENGINEERED ANTIMICROBIAL AMPHIPHILIC PEPTIDES” (priority 2021, published 2024)", "key": {"[1]": {"system": "Acinetobacter baumannii ATCC 19606 (non-MDR)", "format": "cell-based", "settings": "Acinetobacter baumannii ATCC 19606 (non-MDR)", "experimental": "(§1) Each peptide was formulated in PBS buffer prior to testing. Peptides of SEQ ID NO:5 and SEQ ID NO:8 were brought up in 100% DMSO with 0.002% polysorbate-80 at 1.28 mg/mL (40× the highest final test concentration of 32 mcg/mL). Final test concentration of DMSO was 2.5% in the assay at the first dilution for those two compounds.\n(§2) Mueller Hinton II broth (MHB II; BD; Lot Nos. 6258541 and 7143896) was used for MIC testing of aerobic organisms. 0.002% polysorbate 80 (P80) was added to the test medium.\n(§3) MIC values were determined using a broth microdilution procedure described by CLSI (1, 3). Automated liquid handlers (Multidrop 384, Labsystems, Helsinki, Finland; Biomek 2000 and Biomek FX, Beckman Coulter, Fullerton CA) were used to conduct serial dilutions and liquid transfers.\n(§4) To prepare the drug mother plates, which would provide the serial peptide dilutions for the replicate daughter plates, the wells of columns 2-12 of standard 96-well microdilution plates (Costar 3795) were filled with 150 μl of the designated diluent for each row of peptide. The test articles and comparator compounds (300 μl at 40× the highest concentration to be tested) were dispensed into the appropriate wells in column 1. The Biomek 2000 was then used to make 2-fold serial dilutions in the mother plates from column 1 through column 11. The wells of Column 12 contained no drug and served as the organism growth control wells for the assay.\n(§5) The daughter plates were loaded with 185 μL per well of MHB II using the Multidrop 384. The daughter plates were completed on the Biomek FX instrument which transferred 5 uL of peptide solution from each well of a mother plate to the corresponding well of each daughter plate in a single step. A standardized inoculum of each test organism was prepared per CLSI methods. The inoculum for each organism was dispensed into sterile reservoirs divided by length (Beckman Coulter), and the Biomek 2000 was used to inoculate the plates. Daughter plates were placed on the Biomek 2000 work surface in reverse orientation so that inoculation took place from low to high drug concentration. The plates were then inoculated with 10 μL of the inoculum resulting in a final cell density of approximately 5×10^5 CFU/mL, per well.\n(§6) Plates were stacked 3-4 high, covered with a lid on the top plate, placed in plastic bags, and incubated at 35° C. for 16 to 20 hrs. Following incubation, the microplates were removed from the incubator and viewed from the bottom using a plate viewer. […] The MIC was read and recorded as the lowest concentration of peptide that inhibited visible growth of the organism."}, "[2]": {"system": "Enterococcus faecium ATCC 51559 (VRE)", "format": "cell-based", "settings": "Enterococcus faecium ATCC 51559 (VRE)", "experimental": "as §1, §2, §3, §4, §5, §6"}, "[3]": {"system": "Escherichia coli ATCC 25922 (QC)", "format": "cell-based", "experimental": "as §1, §2, §3, §4, §5, §6"}, "[4]": {"system": "Klebsiella pneumoniae ATCC BAA-1705 (KPC)", "format": "cell-based", "experimental": "as §1, §2, §3, §4, §5, §6"}, "[5]": {"system": "Acinetobacter spp. isolates (n = 104)", "experimental": "(§7) Comparator antibiotics were supplied by Micromyx, and stock solutions were prepared on the first day of testing using solvents recommended by CLSI (1). Stock solutions of all compounds were made at 40× the final testing concentration and stored at −80° C. prior to testing. Information regarding compound source, catalog and lot number, testing concentrations and drug diluent for the comparators and test agent are detailed below in Table 3.\n(§8) The test organisms evaluated in this study consisted of clinical isolates from the Micromyx Repository and reference isolates from the American Type Culture Collection (ATCC; Manassas, VA). The clinical isolates were obtained from USA hospitals. Upon initial receipt at Micromyx, the organisms were sub-cultured onto an appropriate agar medium. Following incubation, colonies were harvested from these plates and cell suspensions prepared and frozen at −80° C. with a cryoprotectant. Prior to testing, the isolates were streaked from frozen vials onto Trypticase Soy Agar with 5% sheep blood (Becton Dickenson [BD]; Sparks, MD; Lot Nos. 7173618, 7166759, 7208688, 72144895, 7228505 and Remel Lenexa, KS Lot No. 212574). Plates were incubated at 35° C. overnight.\n(§9) Mueller Hinton II broth (MHB II; BD; Lot Nos. 6258541 and 7143896) was used for MIC testing of aerobic organisms.\nas §3\nas §4, with “drug” for “peptide”, “drug.” for “peptide.”\nas §5, with “μL” for “uL”, “drug” for “peptide”, “methods (1).” for “methods.”, “concentration.” for “concentration. The plates were then inoculated with 10 μL of the inoculum resulting in a final cell density of approximately 5×10^5 CFU/mL, per well.”\nas §6, with “drug” for “peptide”\n(§10) Clinical breakpoints to determine percent resistance within a given organism group were obtained from CLSI (3), with the exception of colistin for K. pneumoniae, Enterobacter spp., and E. coli, which are only available from EUCAST."}, "[6]": {"system": "Escherichia coli isolates (n = 101)", "experimental": "as §7, §8, §9, §3\nas §4, with “drug” for “peptide”, “drug.” for “peptide.”\nas §5, with “μL” for “uL”, “drug” for “peptide”, “methods (1).” for “methods.”, “concentration.” for “concentration. The plates were then inoculated with 10 μL of the inoculum resulting in a final cell density of approximately 5×10^5 CFU/mL, per well.”\nas §6, with “drug” for “peptide”\nas §10"}, "[7]": {"system": "Klebsiella pneumoniae isolates (n = 101)", "experimental": "as §7, §8, §9, §3\nas §4, with “drug” for “peptide”, “drug.” for “peptide.”\nas §5, with “μL” for “uL”, “drug” for “peptide”, “methods (1).” for “methods.”, “concentration.” for “concentration. The plates were then inoculated with 10 μL of the inoculum resulting in a final cell density of approximately 5×10^5 CFU/mL, per well.”\nas §6, with “drug” for “peptide”\nas §10"}, "[8]": {"system": "Pseudomonas aeruginosa isolates (n = 109)", "experimental": "as §7, §8, §9, §3\nas §4, with “drug” for “peptide”, “drug.” for “peptide.”\nas §5, with “μL” for “uL”, “drug” for “peptide”, “methods (1).” for “methods.”, “concentration.” for “concentration. The plates were then inoculated with 10 μL of the inoculum resulting in a final cell density of approximately 5×10^5 CFU/mL, per well.”\nas §6, with “drug” for “peptide”\nas §10"}, "[9]": {"system": "Enterobacter spp. isolates (Enterobacter aerogenes and E. cloacae, n = 102)", "assay": "organism not typed", "experimental": "as §7, §8, §9, §3\nas §4, with “drug” for “peptide”, “drug.” for “peptide.”\nas §5, with “μL” for “uL”, “drug” for “peptide”, “methods (1).” for “methods.”, “concentration.” for “concentration. The plates were then inoculated with 10 μL of the inoculum resulting in a final cell density of approximately 5×10^5 CFU/mL, per well.”\nas §6, with “drug” for “peptide”\nas §10"}, "[10]": {"settings": "Pseudomonas aeruginosa (n = 109)"}, "[11]": {"settings": "Klebsiella pneumoniae (n = 101)"}}, "note": "Like-named read-outs stand apart in the source and are kept apart here. Peptide text beside a SMILES is read from it."}
{"compound": "CC(C)[C@H](NC(=O)[C@H](Cc1c[nH]c2ccccc12)NC(=O)[C@H](CCCNC(=N)N)NC(=O)[C@H](CCCNC(=N)N)NC(=O)[C@@H](NC(=O)[C@@H](NC(=O)[C@H](CCCNC(=N)N)NC(=O)[C@@H](NC(=O)[C@@H](NC(=O)[C@H](CCCNC(=N)N)NC(=O)[C@H](CCCNC(=N)N)NC(=O)[C@H](Cc1c[nH]c2ccccc12)NC(=O)[C@@H](NC(=O)[C@H](CCCNC(=N)N)NC(=O)[C@H](CCCNC(=N)N)NC(=O)[C@@H](NC(=O)[C@H](CCCNC(=N)N)NC(=O)[C@H](CCCNC(=N)N)NC(=O)[C@@H](NC(=O)[C@H](Cc1c[nH]c2ccccc12)NC(=O)[C@H](CCCNC(=N)N)NC(=O)[C@@H](N)CCCNC(=N)N)C(C)C)C(C)C)C(C)C)C(C)C)C(C)C)C(C)C)C(C)C)C(=O)N[C@@H](CCCNC(=N)N)C(=O)N[C@@H](CCCNC(=N)N)C(N)=O", "note": "[SEQ ID NO: 1] (H-RRWVRRVRRVWRRVVRVVRRWVRR-NH2)", "values": [{"measurement": "MIC", "setting": "[1]", "result": 2, "unit": "µg/mL"}, {"measurement": "MIC", "setting": "[2]", "result": 2, "unit": "µg/mL"}, {"measurement": "MIC", "setting": "[3]; ATCC 25922", "result": 4, "unit": "µg/mL"}, {"measurement": "MIC", "setting": "[4]; ATCC BAA-1705", "result": 8, "unit": "µg/mL"}, {"measurement": "Mode (MIC)", "setting": "[5]", "result": 4, "unit": "µg/mL"}, {"measurement": "MIC90", "setting": "[5]; Acinetobacter colistin-resistant, n=21", "result": 16, "unit": "µg/mL"}, {"measurement": "MIC90", "setting": "[5]; Acinetobacter spp. (n = 104)", "result": 16, "unit": "µg/mL"}, {"measurement": "Mode (MIC)", "setting": "[6]; isolates (n = 101)", "result": 2, "unit": "µg/mL"}, {"measurement": "MIC90", "setting": "[7]; K. pneumoniae colistin-resistant, n=28", "result": 16, "unit": "µg/mL"}, {"measurement": "MIC90", "setting": "[8]; P. aeruginosa colistin-resistant, n=8", "result": 16, "unit": "µg/mL"}, {"measurement": "MIC90", "setting": "[8]; [10]", "result": 16, "unit": "µg/mL"}, {"measurement": "Mode (MIC)", "setting": "[9]", "result": 16, "unit": "µg/mL"}]}
{"compound": "Colistin [reference compound]", "values": [{"measurement": "MIC", "setting": "[1]", "result": 0.25, "unit": "µg/mL"}, {"measurement": "MIC", "setting": "[2]", "result": ">32", "unit": "µg/mL"}, {"measurement": "MIC", "setting": "[3]; Escherichia coli ATCC 25922 (QC)", "result": 0.12, "unit": "µg/mL"}, {"measurement": "MIC", "setting": "[4]; Klebsiella pneumoniae ATCC BAA-1705 (KPC)", "result": 0.12, "unit": "µg/mL"}, {"measurement": "MIC50", "setting": "[5]; Acinetobacter spp. (n = 104)", "result": 0.25, "unit": "µg/mL"}, {"measurement": "MIC90", "setting": "[5]; Acinetobacter spp. (n = 104)", "result": ">32", "unit": "µg/mL"}, {"measurement": "Mode (MIC)", "setting": "[5]; Acinetobacter spp. (n = 104)", "result": 0.25, "unit": "µg/mL"}, {"measurement": "% R (percent of isolates resistant)", "setting": "[5]; Acinetobacter spp. (n = 104), CLSI breakpoints", "result": 20.2, "unit": "%"}, {"measurement": "MIC50", "setting": "[6]; Escherichia coli (n = 101)", "result": 0.12, "unit": "µg/mL"}, {"measurement": "MIC90", "setting": "[6]; Escherichia coli (n = 101)", "result": 0.12, "unit": "µg/mL"}, {"measurement": "MIC range", "setting": "[6]; Escherichia coli (n = 101)", "result": "≤0.03-0.5 ^ μg/mL"}, {"measurement": "Mode (MIC)", "setting": "[6]; Escherichia coli (n = 101)", "result": 0.12, "unit": "µg/mL"}, {"measurement": "% R (percent of isolates resistant)", "setting": "[6]; Escherichia coli (n = 101), CLSI breakpoints, colistin EUCAST", "result": 0, "unit": "%"}, {"measurement": "MIC50", "setting": "[7]; [11]", "result": 0.12, "unit": "µg/mL"}, {"measurement": "MIC90", "setting": "[7]; [11]", "result": 32, "unit": "µg/mL"}, {"measurement": "Mode (MIC)", "setting": "[7]; [11]", "result": 0.12, "unit": "µg/mL"}, {"measurement": "% R (percent of isolates resistant)", "setting": "[7]; Klebsiella pneumoniae (n = 101), CLSI breakpoints, colistin EUCAST", "result": 27.7, "unit": "%"}, {"measurement": "MIC50", "setting": "[8]; [10]", "result": 0.5, "unit": "µg/mL"}, {"measurement": "MIC90", "setting": "[8]; [10]", "result": 1, "unit": "µg/mL"}, {"measurement": "Mode (MIC)", "setting": "[8]; [10]", "result": 0.5, "unit": "µg/mL"}, {"measurement": "% R (percent of isolates resistant)", "setting": "[8]; Pseudomonas aeruginosa (n = 109), CLSI breakpoints", "result": 7.3, "unit": "%"}, {"measurement": "MIC50", "setting": "[9]; Enterobacter spp. (n = 102)", "result": 0.12, "unit": "µg/mL"}, {"measurement": "MIC90", "setting": "[9]; Enterobacter spp. (n = 102)", "result": 0.25, "unit": "µg/mL"}, {"measurement": "Mode (MIC)", "setting": "[9]; Enterobacter spp. (n = 102)", "result": 0.12, "unit": "µg/mL"}, {"measurement": "% R (percent of isolates resistant)", "setting": "[9]; Enterobacter spp. (n = 102), CLSI breakpoints, colistin EUCAST", "result": 5.8, "unit": "%"}]}
